Results published in patent publication US20150265682A1, “THERAPEUTIC METHODS AND COMPOSITIONS FOR TREATING DIABETES” (Orient Europharma Co., Ltd., priority 2014, published 2015).

Assays:
[1] = tested on: C2C12 skeletal muscle cells; test: Glycogen content assay in C2C12 myotubes; format: cell-based; conditions: 30 minutes
Experimental: The C2C12 skeletal muscle cells were cultured in Dulbecco's modified Eagle's medium (DMEM; Gibco/Invitrogen, Carlsbad, Calif.), and the human hepatocellular carcinoma cell line, Hep3B, was cultured in Roswell Park Memorial Institute medium 1640 (RPMI 1640 medium; Gibco/Invitrogen, Carlsbad, Calif.). Cells were cultured at 37° C. in the humidified incubator supplied with 5% CO2. Culture mediums were supplemented with 4.5 mgmL^−1 glucose, penicillin 100 IUmL^−1, streptomycin 100 μgmL^−1 and 10% fetal bovine serum (Gibco/Invitrogen, Carlsbad, Calif.). Only C2C12 cells were then switched to 2% horse serum for 3 days after reaching the 70% confluence. Myotubes formation was achieved after 4 days of incubation, and the cells were used for subsequent experiments. Culture mediums were replaced by serum free DMEM or RPMI for 24 h before experiments (see e.g., procedure described in Sultan et al., 2006).
C2C12 and Hep3B cells were treated with 1 nM insulin, 100 μM metformin, and the assigned concentration of borapetoside A for 30 minutes. To develop the insulin resistance state of cells, C2C12 cells were incubated with IL-6 at 20 ngmL^−1 for 1 hour. Later, the cells were treated with 1 nM insulin, 100 μM metformin, and the assigned concentration of borapetoside A for 30 minutes. After the assigned treatment, cells were washed twice with phosphate buffered saline (PBS). Glycogen content was measured as previously described, with some modifications (see e.g., Savage et al., 2008). The protein concentrations of the cell lysates were determined by using Pierce BCA Protein Assay Kit (Thermo-Scientific, Rockford, Ill.). The glycogen content of each sample was normalized by total protein.

[2] = tested on: IR, Akt, AS160, GLUT2 and PEPCK in liver of mice with type 1 DM; test: Western blot of insulin signaling pathway in liver after 7-day borapetoside A; format: in vivo, ICR mice; conditions: type 1 DM mice; 10 mgkg^−1 twice a day for 7 days
Experimental: After three days of acclimatization, the mice had free access to a standard rodent chow (normal mice), a standard rodent chow after single […] streptozotocin (STZ) intraperitoneal injection (T1DM mice), and a fat-rich chow diet and fructose-sweetened water (T2DM mice) for 4 weeks. The induction of Type 1 DM was assessed and confirmed when the mice had plasma glucose levels ≧350 mgdL^−1, accompanied with polyuria, hyperphagia and decreased body weight. The induction Type 2 DM in the mice was assessed by measuring fasting plasma glucose levels and confirmed when plasma glucose level was ≧150 mgdL^−1 after the 4-week induction. The animals were assigned randomly into three groups, with seven animals in each group. In group I, the mice were treated with vehicle, 2% DMSO in normal saline, as the negative control. In group II, the mice were intraperitoneally treated with borapetoside A (0.1-10 mgkg^−1). In group Ill, the positive control, the mice received intraperitoneally metformin (300 mgkg^−1; Sigma Chemical Co., St. Louis, Mo., U.S.A.) or insulin (0.5 IUkg^−1; Insulin Actrapid® HM; Novo Nordisk, Denmark). In the acute study, mice under anesthesia received a single intraperitoneal administration of borapetoside A, negative control, or positive control. In the subacute study, mice received intraperitoneal administrations of borapetoside A, vehicle, or insulin twice a day for seven days.
Western blot analysis was carried out by known methods with a slight modification. Briefly, tissues were homogenized in T-PER® Tissue Protein Extraction Reagent (Pierce Biotechnology, Rockford, Ill.) with Halt™ Protease Inhibitor Single-Use Cocktail (Pierce Biotechnology, Rockford, Ill.). Liver homogenates were prepared by mechanical homogenization (Polytron PT3100, Luzernerstrasse, Switzerland). After centrifuging the homogenates at 10,000 g for 30 minutes, the protein concentrations were determined by using a BCA Protein Assay Kit (Pierce Biotechnology, Rockford, Ill.). Later, 60 μg of protein preparations were applied on 10% sodium dodecyl sulfate-polyacrylamide gel for electrophoresis and then transferred to polyvinylidene difluoride membranes (Millipore, Billerica, Mass.). The membranes were analysed by using the antibodies against phospho-insulin receptor β (IRβ) (Tyr^1345), phospho-Akt (Ser^473), phosphor-AS160 (Thr^642), AS160 (Cell Signaling Technology, Beverly, Mass.), IRβ, Akt, β-Actin (Santa Cruz Biotechnology, Santa Cruz, Calif.), GLUT2 (Abcam, Cambridge, UK), and PEPCK (a gift from Professor DK Granner), respectively. Chemiluminescence detection and image analysis was performed with UVP-Biochimie Bioimager and Lab Works software (UVP, Upland, Calif.). The intensity of each band was quantified with ImageQuant.

C[C@@]12C[C@@H](c3ccoc3)OC(=O)[C@@H]1C[C@@H]1OC(=O)[C@@]3(O)[C@@H](O[C@@H]4O[C@H](CO)[C@@H](O)[C@H](O)[C@H]4O)CC[C@@H]2[C@@]13C [Borapetoside A, borapetoside A]
fold increase of glycogen ([1]; 10^−6 mol/L): 1.49±0.15 fold | fold increase of glycogen ([1]; 10^−7 mol/L): 1.28±0.04 fold | fold increase of glycogen ([1]; 10^−8 mol/L): 1.53±0.10 fold | PEPCK expression in liver [2]: significant decrease | expression of GLUT2 in liver [2]: increased | phosphorylated AS160 in liver [2]: increased | phosphorylated Akt in liver [2]: increased | phosphorylated IR in liver [2]: increased
